Patent US20070155795A1, “MUSCARINIC AGONISTS” (ACADIA Pharmaceuticals Inc., priority 2000, published 2007)

Tests used:
Assay type in all cases: cell-based
[1] = molecular target: T1, m1 muscarinic receptor subtype (Homo sapiens, UniProt P11229); experiment: R-SAT assay, muscarinic receptor subtype m1; details: transfected NIH-3T3 cells, 5 days; for m1 % Eff: relative to maximum response to carbachol; for EC50: read-out: m1 pEC50 (converted)
T1 construct: expressed in transfected cells; host or cells: NIH-3T3 (ATCC CRL 1658)
T1 sequence (P11229 1-460): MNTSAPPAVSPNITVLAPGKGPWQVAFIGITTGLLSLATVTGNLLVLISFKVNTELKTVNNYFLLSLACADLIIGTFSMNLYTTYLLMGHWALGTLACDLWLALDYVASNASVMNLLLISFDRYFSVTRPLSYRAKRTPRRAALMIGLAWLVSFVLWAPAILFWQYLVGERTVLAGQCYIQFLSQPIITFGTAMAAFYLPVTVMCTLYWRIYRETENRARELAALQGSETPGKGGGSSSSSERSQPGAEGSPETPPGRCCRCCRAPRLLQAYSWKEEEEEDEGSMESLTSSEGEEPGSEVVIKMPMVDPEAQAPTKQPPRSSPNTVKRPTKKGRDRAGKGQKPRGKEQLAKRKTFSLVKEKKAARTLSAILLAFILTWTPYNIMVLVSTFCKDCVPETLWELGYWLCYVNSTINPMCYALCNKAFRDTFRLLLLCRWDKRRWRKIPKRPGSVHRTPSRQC
Method: (§1) Transfected cells were grown in the presence of between 1 nM and 40 μM of the test compound for 5 days. On day 5, the cells were lysed using 0.5% Nonidet-P and β-galactosidase expression was quantified using the chromogenic substrate o-nitrophenyl-β-D-galactoside (ONGP).
(§2) Data were normalized relative to the maximum response of the cells to the muscarinic agonist carbachol, and the following equation was fitted to the data: • response=minimum+(maximum−minimum)/(1+(EC50/[ligand])) • Where [ligand]=ligand concentration. • % Efficacy was defined as: • (maximum−minimum)/(maximum response of cells to carbachol). • pEC50=−log (EC50). • Where data gave a bell-shaped curve, “maximum” was defined as the highest observed response.

[2] = molecular target: T2, m4 muscarinic receptor subtype (Homo sapiens, UniProt P08173); experiment: R-SAT assay, muscarinic receptor subtype m4; details: transfected NIH-3T3 cells, 5 days; for m4 % Eff: relative to maximum response to carbachol; for EC50: read-out: m4 pEC50 (converted)
T2 construct: expressed in transfected cells; host or cells: NIH-3T3 (ATCC CRL 1658)
T2 sequence (P08173 1-479): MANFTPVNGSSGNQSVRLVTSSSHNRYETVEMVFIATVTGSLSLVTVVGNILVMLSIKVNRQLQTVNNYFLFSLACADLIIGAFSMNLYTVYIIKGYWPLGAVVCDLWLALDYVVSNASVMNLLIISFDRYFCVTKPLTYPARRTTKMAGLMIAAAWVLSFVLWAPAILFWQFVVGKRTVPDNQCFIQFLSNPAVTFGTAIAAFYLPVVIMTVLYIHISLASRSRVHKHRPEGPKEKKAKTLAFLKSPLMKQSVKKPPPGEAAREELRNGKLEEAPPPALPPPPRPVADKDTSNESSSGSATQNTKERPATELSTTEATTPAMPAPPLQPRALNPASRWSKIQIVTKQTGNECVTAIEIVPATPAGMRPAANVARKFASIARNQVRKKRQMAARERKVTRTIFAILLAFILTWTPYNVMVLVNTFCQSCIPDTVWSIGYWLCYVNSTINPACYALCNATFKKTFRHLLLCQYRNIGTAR
Method: as §1, §2

[3] = molecular target: T3, m5 muscarinic receptor subtype (Homo sapiens, UniProt P08912); experiment: R-SAT assay, muscarinic receptor subtype m5; details: transfected NIH-3T3 cells, 5 days, relative to maximum response to carbachol
T3 construct: expressed in transfected cells; host or cells: NIH-3T3 (ATCC CRL 1658)
T3 sequence (P08912 1-532): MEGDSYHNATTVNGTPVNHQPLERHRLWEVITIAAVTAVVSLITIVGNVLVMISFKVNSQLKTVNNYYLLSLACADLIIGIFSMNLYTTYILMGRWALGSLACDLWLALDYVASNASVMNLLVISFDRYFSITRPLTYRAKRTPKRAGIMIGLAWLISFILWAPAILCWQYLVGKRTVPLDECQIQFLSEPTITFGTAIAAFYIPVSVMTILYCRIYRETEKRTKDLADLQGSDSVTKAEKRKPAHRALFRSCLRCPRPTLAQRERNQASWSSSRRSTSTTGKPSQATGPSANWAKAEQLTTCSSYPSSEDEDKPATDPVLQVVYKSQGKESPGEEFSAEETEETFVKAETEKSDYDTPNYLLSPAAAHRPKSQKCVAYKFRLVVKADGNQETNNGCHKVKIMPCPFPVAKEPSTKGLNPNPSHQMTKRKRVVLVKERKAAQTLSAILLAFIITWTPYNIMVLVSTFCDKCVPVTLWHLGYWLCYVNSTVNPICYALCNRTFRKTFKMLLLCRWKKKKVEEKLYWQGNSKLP
Method: (§3) Screening Of Test Compounds In An Assay Using Muscarinic Receptor Subtypes m1, m2, m3, m4 and m5. The m1, m2, m3, m4 and m5 muscarinic receptor subtypes were cloned substantially as described by Bonner et al., Science […] and Bonner et al., Neuron 1:403 (1988). R-SAT assays were carried out substantially as described in U.S. Pat. Nos. 5,707,798, 5,912,132, and 5,955,281, and by Braüner-Osborne & Brann, Eur. J. Pharmacol. 295:93 (1995). NIH-3T3 cells (available from the American Type Culture Collection as ATCC CRL 1658) were transfected with plasmid DNA encoding the m1, m2, m3, m4 or m5 receptors and plasmid DNA encoding β-galactosidase. Transfected cells were grown in the presence of between 1 nM and 40 μM of the test compound for 5 days. On day 5, the cells were lysed using 0.5% Nonidet-P and β-galactosidase expression was quantified using the chromogenic substrate o-nitrophenyl-β-D-galactoside (ONGP).
as §2

[4] = molecular target: T4, m3 muscarinic receptor subtype (Homo sapiens, UniProt P20309); experiment: R-SAT assay, muscarinic receptor subtype m3; details: transfected NIH-3T3 cells, 5 days, relative to maximum response to carbachol
T4 construct: expressed in transfected cells; host or cells: NIH-3T3 (ATCC CRL 1658)
Method: as §3, §2

[5] = molecular target: T5, m2 muscarinic receptor subtype (Homo sapiens, UniProt P08172); experiment: R-SAT assay, muscarinic receptor subtype m2; details: transfected NIH-3T3 cells, 5 days, relative to maximum response to carbachol
T5 construct: expressed in transfected cells; host or cells: NIH-3T3 (ATCC CRL 1658)
T5 sequence (P08172 1-466): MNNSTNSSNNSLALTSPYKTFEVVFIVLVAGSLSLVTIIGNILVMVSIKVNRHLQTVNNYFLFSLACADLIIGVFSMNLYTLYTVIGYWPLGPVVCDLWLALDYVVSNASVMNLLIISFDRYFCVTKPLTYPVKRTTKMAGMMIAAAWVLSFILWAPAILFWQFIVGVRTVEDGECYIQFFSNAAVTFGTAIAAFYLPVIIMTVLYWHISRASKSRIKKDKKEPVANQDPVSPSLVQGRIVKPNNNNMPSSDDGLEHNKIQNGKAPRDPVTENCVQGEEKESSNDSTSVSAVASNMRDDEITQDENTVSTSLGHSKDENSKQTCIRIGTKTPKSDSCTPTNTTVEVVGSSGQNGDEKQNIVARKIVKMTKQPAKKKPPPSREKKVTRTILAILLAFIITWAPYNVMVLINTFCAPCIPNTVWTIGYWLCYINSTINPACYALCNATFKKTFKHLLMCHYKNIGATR
Method: as §3, §2

T4 sequence (P20309 whole entry): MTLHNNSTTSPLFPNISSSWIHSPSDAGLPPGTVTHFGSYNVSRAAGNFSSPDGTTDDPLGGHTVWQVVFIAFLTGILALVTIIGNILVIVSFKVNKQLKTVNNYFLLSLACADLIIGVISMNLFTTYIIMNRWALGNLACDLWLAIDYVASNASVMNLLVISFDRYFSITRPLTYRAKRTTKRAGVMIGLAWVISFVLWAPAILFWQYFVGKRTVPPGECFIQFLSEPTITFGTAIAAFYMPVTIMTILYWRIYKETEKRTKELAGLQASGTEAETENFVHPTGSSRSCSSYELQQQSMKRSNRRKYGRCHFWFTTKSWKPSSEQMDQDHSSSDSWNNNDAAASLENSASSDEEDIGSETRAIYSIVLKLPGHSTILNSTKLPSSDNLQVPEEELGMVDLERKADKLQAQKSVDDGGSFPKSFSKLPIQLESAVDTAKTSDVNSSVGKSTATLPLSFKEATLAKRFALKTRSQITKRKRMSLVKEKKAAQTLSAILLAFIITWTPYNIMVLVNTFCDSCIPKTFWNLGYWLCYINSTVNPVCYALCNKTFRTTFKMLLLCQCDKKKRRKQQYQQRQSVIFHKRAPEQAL

| Compound | m1 pEC50 [1] | m1 % Eff [1] [%] | m4 pEC50 [2] | m4 % Eff [2] | m5 % Eff [3] | m3 % Eff [4] | m2 % Eff [5] | EC50 [1] [nM] | EC50 [2] [nM] |
| --- | --- | --- | --- | --- | --- | --- | --- | --- | --- |
| 1-[3-(4-Butyl-piperidin-1-yl)-propyl]-5,6-dimethyl-1H-benzoimidazole [Example 81] | 6.4 | 72 | <5.5 | 77% | – | – | – | – | – |
| 2-[3-(4-Butylpiperidin-1-yl)-propyl]-1-methyl-1H-benzimidazole [Example 73] | 6.2 | 37 | – | no response (No response: Efficacy <25% maximum response of carbachol. This level of activity is not considered significantly different to no response.) | – | – | – | – | – |
| 3-[3-(4-Butyl-piperidin-1-yl)-propyl]-benzo[d]isothiazole [Example 93] | 7.1 | 83 | 6.4 | 58% | no response (No response: Efficacy <25% maximum response of carbachol. This level of activity is not considered significantly different to no response.) | no response (No response: Efficacy <25% maximum response of carbachol. This level of activity is not considered significantly different to no response.) | no response (No response: Efficacy <25% maximum response of carbachol. This level of activity is not considered significantly different to no response.) | – | – |
| CCCCC1CCN(CCCn2ccc3ccccc32)CC1 [Example 12, 1-(3-(4-n-Butylpiperidine)-1-yl-propyl)-1H-indole] | 5.9 | 59 | – | – | no response (No response: Efficacy <25% maximum response of carbachol. This level of activity is not considered significantly different to no response.) | no response (No response: Efficacy <25% maximum response of carbachol. This level of activity is not considered significantly different to no response.) | no response (No response: Efficacy <25% maximum response of carbachol. This level of activity is not considered significantly different to no response.) | – | – |
| CCCCC1CCN(CCCc2noc3ccccc23)CC1 [Example 24, 3-(3-(4-n-Butylpiperidine)-1-yl-propyl)-benzo[d]isoxazole] | – | 75 | – | 41% | no response (No response: Efficacy <25% maximum response of carbachol. This level of activity is not considered significantly different to no response.) | no response (No response: Efficacy <25% maximum response of carbachol. This level of activity is not considered significantly different to no response.) | no response (No response: Efficacy <25% maximum response of carbachol. This level of activity is not considered significantly different to no response.) | 126 | 501 |
| CCCCC1CCN(CCCc2nc3c([N+](=O)[O-])cccc3[nH]2)CC1 [Example 28, 4-Nitro-2-(3-(4-n-butylpiperidine)-1-yl-propyl)-1H-benzoimidazole] | 6.5 | 38 | – | no response (No response: Efficacy <25% maximum response of carbachol. This level of activity is not considered significantly different to no response.) | no response (No response: Efficacy <25% maximum response of carbachol. This level of activity is not considered significantly different to no response.) | no response (No response: Efficacy <25% maximum response of carbachol. This level of activity is not considered significantly different to no response.) | – | – | – |
| CC(C)CCC1CCN(CCCn2ncc3ccccc32)CC1 [Example 42, 1-(3-(4-(3-Methyl-butyl)-piperidine)-1-yl-propyl)-1H-indazole] | 7.1 | 51 | – | – | – | – | – | – | – |
| CCCCC=C1CCN(CCCn2ncc3ccccc32)CC1 [Example 43, 1-(3-(4-Pentylidene-piperidine)-1-yl-propyl)-1H-indazole] | – | 66 | – | 30% | no response (No response: Efficacy <25% maximum response of carbachol. This level of activity is not considered significantly different to no response.) | – | – | 501 | 1000 |
| CCC=C1CCN(CCCn2ncc3ccccc32)CC1 [Example 44, 1-(3-(4-Propylidene-piperidine)-1-yl-propyl)-1H-indazole] | 6.1 | 72 | – | – | – | – | – | – | – |
| CCCCC1CCN(CCCn2nc(Cl)c3ccccc32)CC1 [Example 65, 1-[3-(4-Butylpiperidin-1-yl)-propyl]-3-chloro-1H-indazole] | 6.0 | 45 | <5.5 | 34% | – | – | no response (No response: Efficacy <25% maximum response of carbachol. This level of activity is not considered significantly different to no response.) | – | – |
| CCCCC1CCN(CCCn2c(C)cc3ccccc32)CC1 [Example 77, 1-[3-(4-Butyl-piperidin-1-yl)-propyl]-2-methyl-1H-indole] | 7.0 | 71 | 6.3 | 96% | – | – | – | – | – |
